Measurements taken from patent EP0232893A2, “Antibiotics of the streptogramine type, a microbiological process for their preparation and their use as medicaments and food additives” (HOECHST AKTIENGESELLSCHAFT, priority 1986, dated 1987).
*1 amine or outer side, *2 acyl side, *3 side chain or, on linkers, in order; H or OH if unused. Where a SMILES comes first, the peptide text is derived from it. Bridges are numbered along the chain shown (N, C = ends). [ ]: non-standard residue; d: D form. The star is where a group is joined. X1 = CC(C)[C@H](C)[C@@H](C(=O)[*:2])N(C)[*:1]; d(cisHyp) = O=C(O)[C@H]1C[C@@H](O)CN1; Picolinoyl(3-OH) = O=C(c1ncccc1O)*; NMePhg = CN[C@H](C(=O)O)c1ccccc1; Sar = CNCC(=O)O

Test: Feeding trials in animals, growth promotion
Type: in vivo, Mastgeflügel, Schweinen, Mastrindern, Schafen und Kaninchen
Conditions: e.g. fattening poultry, pigs, fattening cattle, sheep, rabbits
Excerpt: Dies gilt auch für die einzelnen Komponenten, insbesondere für das Neoviridogrisein IV, für das ein wachstumsfördernder -Effekt bisher nicht beschrieben war. Auch die Legeleistung von Geflügel, insbesondere das Eigewicht und die Milchleistung von Milchkühen, -schafen und -ziegen wird durch den Antibiotikakomplex oder seine einzelnen Komponenten positiv beeinflußt.
Zur Erzielung des Effekts verwendet man Konzentrationen von 2 - 100 ppm, vorzugsweise 2 - 50 ppm, insbesondere 5 - 20 ppm, bezogen auf Alleinfutter. Entsprechend höher sind die Konzentrationen, wenn die Antibiotika als Zusatz zu Beifutter verabreicht werden.

## CC(C)C[C@H]1NC(=O)[C@@H](NC(=O)c2ncccc2O)[C@@H](C)OC(=O)[C@H](c2ccccc2)N(C)C(=O)[C@H](C)NC(=O)[C@H]([C@@H](C)C(C)C)N(C)C(=O)CN(C)C(=O)[C@H]2C[C@@H](O)CN2C1=O [Neoviridogrisein IV] ({Picolinoyl(3-OH)}-T[dL][d(cisHyp)][Sar][X1]A[NMePhg]; ester 1-C)
  wachstumsfördernde Wirkung: ausgeprägte wachstumsfördernde Wirkung
